According to ChEMBL document CHEMBL1177792, “Pre-clinical characterization of aryloxypyridine amides as histamine H3 receptor antagonists: identification of candidates for clinical development” (Bioorg Med Chem Lett, 2010):
Each block holds one molecule with its values, some of them ahead of it.

Assays:
Histamine H3 receptor [1] = target: T1, Histamine H3 receptor (Homo sapiens, UniProt Q9Y5N1); assay: Displacement of [125I]-iodoproxyfan from human recombinant histamine H3 receptor expressed in human SK-N-MC cells after 1 hr by scintillation counting; format: cell-based
T1 sequence (Q9Y5N1 whole entry): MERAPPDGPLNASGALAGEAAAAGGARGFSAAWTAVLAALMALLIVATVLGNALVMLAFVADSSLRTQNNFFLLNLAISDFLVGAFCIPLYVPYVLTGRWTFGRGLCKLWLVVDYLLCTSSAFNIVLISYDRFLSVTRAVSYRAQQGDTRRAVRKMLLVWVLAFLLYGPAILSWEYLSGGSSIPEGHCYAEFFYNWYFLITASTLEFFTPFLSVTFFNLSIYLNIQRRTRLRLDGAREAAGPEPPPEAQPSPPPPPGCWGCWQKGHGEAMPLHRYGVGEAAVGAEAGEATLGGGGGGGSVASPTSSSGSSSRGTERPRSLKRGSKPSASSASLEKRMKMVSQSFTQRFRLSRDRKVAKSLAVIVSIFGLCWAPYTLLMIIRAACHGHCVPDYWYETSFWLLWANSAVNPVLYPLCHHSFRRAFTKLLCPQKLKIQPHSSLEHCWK

[2] = Drug level in Wistar rat brain at 10 mg/kg, po after 1 hr; format: ADME, organism-based; set-up: dose 10 mg/kg, route oral; details: read-out: Drug uptake
[3] = Bioavailability in Sprague-Dawley rat at 1 mg/kg, iv and 10 mg/kg, po; format: ADME, organism-based; details: in vivo
Rattus norvegicus = assay: Ex vivo receptor occupancy of histamine H3 receptor in Wistar rat brain at 10 mg/kg, po after 1 hr by autoradiography; format: functional
[4] = Plasma concentration in Wistar rat at 10 mg/kg, po after 1 hr; format: ADME, organism-based; set-up: dose 10 mg/kg, route oral; details: read-out: Drug uptake
[5] = Clearance in Sprague-Dawley rat at 1 mg/kg, iv and 10 mg/kg, po; format: ADME, organism-based; details: in vivo
[6] = Metabolic stability in human liver microsomes assessed as compound remaining after 30 mins; format: ADME, Microsome; details: read-out: Stability
Histamine H3 receptor [7] = target: T2, Histamine H3 receptor (Rattus norvegicus, UniProt Q9QYN8); assay: Antagonist activity at rat histamine H3 receptor expressed in human SK-N-MC cells assessed as inhibition of forskolin-induced cAMP accumulation after 6 hrs; format: functional, cell-based; details: read-out: pA2 (converted)
T2 sequence (Q9QYN8 whole entry): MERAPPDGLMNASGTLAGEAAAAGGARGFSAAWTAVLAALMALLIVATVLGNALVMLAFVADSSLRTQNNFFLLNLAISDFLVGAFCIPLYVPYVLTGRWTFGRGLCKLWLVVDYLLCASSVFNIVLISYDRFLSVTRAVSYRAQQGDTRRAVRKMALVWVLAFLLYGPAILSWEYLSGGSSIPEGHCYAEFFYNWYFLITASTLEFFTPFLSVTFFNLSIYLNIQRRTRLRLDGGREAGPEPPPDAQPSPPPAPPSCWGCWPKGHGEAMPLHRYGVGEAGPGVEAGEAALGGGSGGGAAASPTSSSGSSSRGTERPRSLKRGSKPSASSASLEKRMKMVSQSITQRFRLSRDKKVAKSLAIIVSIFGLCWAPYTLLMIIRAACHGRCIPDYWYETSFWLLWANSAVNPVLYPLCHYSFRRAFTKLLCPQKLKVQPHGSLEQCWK

[8] = Half life in Sprague-Dawley rat at 1 mg/kg, iv and 10 mg/kg, po; format: ADME, organism-based; details: in vivo
[9] = Metabolic stability in rat liver microsomes assessed as compound remaining after 30 mins; format: ADME, Microsome; details: read-out: Stability
[10] = target: T3, Voltage-gated inwardly rectifying potassium channel KCNH2 (Homo sapiens, UniProt Q12809); assay: Inhibition of human ERG by patch clamp technique
T3 sequence (Q12809 whole entry): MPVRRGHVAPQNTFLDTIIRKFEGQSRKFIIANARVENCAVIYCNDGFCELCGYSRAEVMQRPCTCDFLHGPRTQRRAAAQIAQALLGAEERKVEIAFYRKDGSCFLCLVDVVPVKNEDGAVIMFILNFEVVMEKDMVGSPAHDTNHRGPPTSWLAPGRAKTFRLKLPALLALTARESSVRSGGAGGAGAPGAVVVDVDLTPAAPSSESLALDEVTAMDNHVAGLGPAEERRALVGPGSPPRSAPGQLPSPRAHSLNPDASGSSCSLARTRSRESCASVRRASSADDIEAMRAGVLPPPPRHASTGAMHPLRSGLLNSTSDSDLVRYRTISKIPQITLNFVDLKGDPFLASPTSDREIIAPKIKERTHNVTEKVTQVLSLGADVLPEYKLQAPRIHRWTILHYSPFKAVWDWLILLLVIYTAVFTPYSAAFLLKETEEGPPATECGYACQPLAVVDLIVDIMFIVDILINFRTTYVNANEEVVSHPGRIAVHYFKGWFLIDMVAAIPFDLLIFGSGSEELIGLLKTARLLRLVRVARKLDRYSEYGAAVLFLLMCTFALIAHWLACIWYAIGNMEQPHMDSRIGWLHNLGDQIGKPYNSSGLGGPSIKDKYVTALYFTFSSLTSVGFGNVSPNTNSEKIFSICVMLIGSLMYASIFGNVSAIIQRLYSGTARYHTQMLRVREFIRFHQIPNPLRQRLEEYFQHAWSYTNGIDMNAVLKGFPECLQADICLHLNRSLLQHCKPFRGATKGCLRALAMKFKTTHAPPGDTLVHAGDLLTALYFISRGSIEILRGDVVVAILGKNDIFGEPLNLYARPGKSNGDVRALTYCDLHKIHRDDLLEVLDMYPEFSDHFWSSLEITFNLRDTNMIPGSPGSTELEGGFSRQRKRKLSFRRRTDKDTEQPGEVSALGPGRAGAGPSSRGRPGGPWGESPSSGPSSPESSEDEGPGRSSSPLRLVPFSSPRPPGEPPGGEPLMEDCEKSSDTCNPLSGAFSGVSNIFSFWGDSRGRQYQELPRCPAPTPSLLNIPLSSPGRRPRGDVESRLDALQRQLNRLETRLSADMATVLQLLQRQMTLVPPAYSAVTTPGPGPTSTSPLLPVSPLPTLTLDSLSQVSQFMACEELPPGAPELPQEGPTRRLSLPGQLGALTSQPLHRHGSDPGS

[11] = target: T3, Voltage-gated inwardly rectifying potassium channel KCNH2; assay: Displacement of radiolabeled astemizole from human ERG
[12] = Volume of distribution at steady state in Sprague-Dawley rat at 1 mg/kg, iv and 10 mg/kg, po; format: ADME, organism-based; details: in vivo, read-out: Vdss
Histamine H3 receptor [13] = target: T1, Histamine H3 receptor; assay: Antagonist activity at human histamine H3 receptor expressed in human SK-N-MC cells assessed as inhibition of forskolin-induced cAMP accumulation after 6 hrs; format: functional, cell-based; details: read-out: pA2 (converted)
hERG (KCNH2) = hERG (KCNH2) (Homo sapiens, UniProt Q12809); assay: Displacement of radiolabeled astemizole from human ERG at 10 uM; details: probe radiolabeled astemizole
hERG (KCNH2), sequence (Q12809 whole entry): as above

Histamine H3 receptor [14] = target: T2, Histamine H3 receptor; assay: Binding affinity to histamine H3 receptor in rat brain; format: tissue-based

Ki (Histamine H3 receptor [1]): 78 nM
SMILES: CC(C)N1CCN(C(=O)c2ccc(Oc3ccc(Cl)c(Cl)c3)nc2)CC1

concentration at 1 h [2]: 1720 nM | bioavailability [3]: 19% | concentration at 1 h [4]: 630 nM | clearance [5]: 104 mL/min/kg | remaining at 0.5 h [6]: 98% | Kb (Histamine H3 receptor [7]): 5.01 nM | half-life [8]: 1 h | remaining at 0.5 h [9]: 58% | Vd [12]: 5 L/kg | Kb (Histamine H3 receptor [13]): 0.871 nM
SMILES: O=C(c1ccc(Oc2cccc(Cl)c2)nc1)N1CCCN(C2CCC2)CC1
Activity (Rattus norvegicus): 96% | IC50 [10]: 1600 nM | IC50 [11]: > 10000 nM | inhibition at 10 µM (hERG (KCNH2)): 28%

Ki (Histamine H3 receptor [1]): 2.3 nM
SMILES: O=C(c1ccc(Sc2ccccc2)nc1)N1CCCN(C2CCC2)CC1

Ki (Histamine H3 receptor [1]): 3.7 nM
SMILES: O=C(c1ccc(Sc2ccccc2)cn1)N1CCCN(C2CCC2)CC1

Ki (Histamine H3 receptor [1]): 100 nM
SMILES: CC(C)N1CCN(C(=O)c2ccc(Oc3cccc(Cl)c3)nc2)CC1

Ki (Histamine H3 receptor [1]): 12 nM
SMILES: N#Cc1cccc(Oc2ccc(C(=O)N3CCCN(C4CC4)CC3)cn2)c1

Ki (Histamine H3 receptor [1]): 230 nM
SMILES: CSc1ccc(Oc2ccc(C(=O)N3CCN(C(C)C)CC3)cn2)cc1

Ki (Histamine H3 receptor [1]): 5.5 nM
SMILES: O=C(c1ccc(Oc2ccc(Cl)cc2)cn1)N1CCCN(C2CCC2)CC1

Ki (Histamine H3 receptor [1]): 31 nM
SMILES: CC(C)N1CCN(C(=O)c2ccc(Oc3ccccc3Cl)nc2)CC1

Ki (Histamine H3 receptor [1]): 860 nM
SMILES: CN1CCCN(C(=O)c2ccc(Oc3ccc(F)cc3)nc2)CC1

Ki (Histamine H3 receptor [1]): 41 nM
SMILES: O=C(c1cc(Oc2ccccc2)ccn1)N1CCCN(C2CCC2)CC1

Ki (Histamine H3 receptor [1]): 9000 nM
SMILES: O=C(c1ccc(Oc2ccc(F)cc2)nc1)N1CCCNCC1

Ki (Histamine H3 receptor [1]): 73 nM
SMILES: CC(C)N1CCN(C(=O)c2ccc(Oc3ccc(Cl)cc3)nc2)CC1

Ki (Histamine H3 receptor [1]): 4.3 nM | Kb (Histamine H3 receptor [13]): 0.537 nM
SMILES: O=C(c1ccc(Oc2ccccc2F)cn1)N1CCCN(C2CCC2)CC1

concentration at 1 h [2]: 2620 nM | bioavailability [3]: 62% | Ki (Histamine H3 receptor [1]): 59 nM | Ki (Histamine H3 receptor [14]): 23 nM | concentration at 1 h [4]: 4470 nM | clearance [5]: 36 mL/min/kg | remaining at 0.5 h [6]: 95% | Kb (Histamine H3 receptor [7]): 3.98 nM | half-life [8]: 1.3 h | remaining at 0.5 h [9]: 63% | Vd [12]: 3 L/kg
SMILES: O=C(c1ccc(Oc2ccc(Cl)cc2)nc1)N1CCCN(C2CCC2)CC1
Activity (Rattus norvegicus): 95% | IC50 [10]: 1400 nM | IC50 [11]: > 10000 nM | inhibition at 10 µM (hERG (KCNH2)): 23%

Ki (Histamine H3 receptor [1]): 17 nM
SMILES: O=C(c1ccc(Oc2ccccc2Cl)nc1)N1CCCN(C2CCC2)CC1

Ki (Histamine H3 receptor [1]): 79 nM
SMILES: CC(C)N1CCN(C(=O)c2ccc(Oc3ccc(F)cc3)nc2)CC1

Ki (Histamine H3 receptor [1]): 430 nM
SMILES: O=C(c1ccc(Oc2ccc(F)cc2)nc1)N1CCN(C2CC2)CC1

concentration at 1 h [2]: 300 nM | Ki (Histamine H3 receptor [1]): 4.4 nM | Ki (Histamine H3 receptor [14]): 15 nM | concentration at 1 h [4]: 210 nM | remaining at 0.5 h [6]: 99% | Kb (Histamine H3 receptor [7]): 3.72 nM | remaining at 0.5 h [9]: 90% | Kb (Histamine H3 receptor [13]): 0.269 nM
SMILES: O=C(c1ccc(Oc2ccccc2)nc1)N1CCCN(C2CCC2)CC1

Ki (Histamine H3 receptor [1]): 4.7 nM
SMILES: O=C(c1ccc(Oc2cccc(Cl)c2)cn1)N1CCCN(C2CCC2)CC1

Ki (Histamine H3 receptor [1]): 430 nM
SMILES: CC(C)N1CCCN(C(=O)c2cccc(Oc3ccc(Cl)c(Cl)c3)n2)CC1

Ki (Histamine H3 receptor [1]): 1040 nM
SMILES: O=C(c1cccc(Oc2ccc(Cl)c(Cl)c2)n1)N1CCCN(C2CC2)CC1
